# Assays:
# [1] = system: focal cerebral ischemia; conditions: adult rat; UA given 2 hours before occlusion of the middle cerebral artery or 1 hour after reperfusion; cited from earlier work
# [2] = system: mixed cultures of neurons/glia; assay: Lactate dehydrogenase (LDH) release assay of cell death after oxygen and glucose deprivation (OGD); type: cell-based, rat; conditions: 100 μM, added 60 min before, during and after 90 min OGD; read 3 hours 30 minutes after OGD; FIG. 1
# Protocol: Mixed cultures of neurons/glia of 18-day rat fetal embryos Sprague-Dawley were prepared as described in Petegnief, V. Saura, J. De Gregorio-Rocasolano, N., and Paul, S. M. (2001) Neuroscience 104, 223-234. The cells were suspended in minimum essential medium (MEM) supplemented by 10% fetal bovine serum and 100 μg/ml gentamicin and placed on 24-well plates previously covered with poly-L-lysine (5 μg/ml) (Nunc, Roskilde, Denmark) with a density of 0.6×10^6 cells/well and cultured at 37° C. in an incubator with 95% atmospheric air/5% CO2. The in vitro medium was partially changed on days 4, 7 and 10 (DIV) with MEM supplemented with B27. The cultures were used in 11/13 DIV. 11.9 mM uric acid was prepared in 1.35 mM lithium carbonate and 5% mannitol. […]
# For the lactate dehydrogenase activity assay, cell death was estimated 3 hours 30 minutes after OGD and next lactate dehydrogenase (LDH) activity was measured released in the medium according to a modification of the method of (Wroblewski and LaDue, […]). The reduction of absorbance in 0.75 NADH to 340 nm was followed by a phosphate buffer ([…], pH 7.4) in presence of 4.2 mM pyruvic acid as substrate.
smiles,measurement,setting,value
O=c1[nH]c(=O)c2[nH]c(=O)[nH]c2[nH]1 [uric acid],resulting cerebral infarction,[1],significantly reduces the resulting cerebral infarction
same,cell viability in ischemic conditions (LDH activity released in the medium),[2],did not improve the cell viability

# Source: patent US20120108532A1, “PHARMACEUTICAL COMPOSITION FOR NEUROPROTECTIVE TREATMENT IN PATIENTS WITH ICTUS COMPRISING CITICOLINE AND URIC ACID” (HOSPITAL CLINIC PROVINCIAL DE BARCELONA, priority 2009, published 2012)
